Test results: patent US11306081B2, “Phenylacetamides as inhibitors of rock” (BRISTOL-MYERS SQUIBB COMPANY, priority 2017, dated 2022)
Where two headings read alike, the source gives them in different places.

Assays:
ROCK2 = ROCK2 (Homo sapiens (Human), UniProt O75116); assay: ROCK assay (LABCHIP 3000 peptide phosphorylation assay); format: biochemical; conditions: 5 μM ATP, 1.5 μM peptide substrate, dose-response
Outline: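 Rho kinase variants in 20 mM HEPES pH 7.5, 20 mM MgCl2, 0.015% Brij-35, 4 mM DTT, 5 μM ATP, 1.5 μM FITC-AHA-AKRRRLSSLRA-OH peptide; DMSO <2%. EDTA-stopped; phosphorylated/non-phosphorylated peptide separated by microfluidic LabChip readout. Dose-response inhibition curve-fitted to give IC50.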

[1] = tested on: spontaneously hypertensive rat, renal hypertensive rat and deoxycortisone acetate salt hypertensive rat models; conditions: cited from earlier work
Dahl salt-sensitive rats = conditions: rat, in vivo; cited from earlier work
[2] = tested on: neointimal formation in rats; conditions: cited from earlier work
[3] = tested on: porcine model of IL-1 beta-induced coronary stenosis; conditions: long term treatment; cited from earlier work
rat stroke model = conditions: in vivo; cited from earlier work

Chain of ROCK2 (O75116 whole entry, species assumed): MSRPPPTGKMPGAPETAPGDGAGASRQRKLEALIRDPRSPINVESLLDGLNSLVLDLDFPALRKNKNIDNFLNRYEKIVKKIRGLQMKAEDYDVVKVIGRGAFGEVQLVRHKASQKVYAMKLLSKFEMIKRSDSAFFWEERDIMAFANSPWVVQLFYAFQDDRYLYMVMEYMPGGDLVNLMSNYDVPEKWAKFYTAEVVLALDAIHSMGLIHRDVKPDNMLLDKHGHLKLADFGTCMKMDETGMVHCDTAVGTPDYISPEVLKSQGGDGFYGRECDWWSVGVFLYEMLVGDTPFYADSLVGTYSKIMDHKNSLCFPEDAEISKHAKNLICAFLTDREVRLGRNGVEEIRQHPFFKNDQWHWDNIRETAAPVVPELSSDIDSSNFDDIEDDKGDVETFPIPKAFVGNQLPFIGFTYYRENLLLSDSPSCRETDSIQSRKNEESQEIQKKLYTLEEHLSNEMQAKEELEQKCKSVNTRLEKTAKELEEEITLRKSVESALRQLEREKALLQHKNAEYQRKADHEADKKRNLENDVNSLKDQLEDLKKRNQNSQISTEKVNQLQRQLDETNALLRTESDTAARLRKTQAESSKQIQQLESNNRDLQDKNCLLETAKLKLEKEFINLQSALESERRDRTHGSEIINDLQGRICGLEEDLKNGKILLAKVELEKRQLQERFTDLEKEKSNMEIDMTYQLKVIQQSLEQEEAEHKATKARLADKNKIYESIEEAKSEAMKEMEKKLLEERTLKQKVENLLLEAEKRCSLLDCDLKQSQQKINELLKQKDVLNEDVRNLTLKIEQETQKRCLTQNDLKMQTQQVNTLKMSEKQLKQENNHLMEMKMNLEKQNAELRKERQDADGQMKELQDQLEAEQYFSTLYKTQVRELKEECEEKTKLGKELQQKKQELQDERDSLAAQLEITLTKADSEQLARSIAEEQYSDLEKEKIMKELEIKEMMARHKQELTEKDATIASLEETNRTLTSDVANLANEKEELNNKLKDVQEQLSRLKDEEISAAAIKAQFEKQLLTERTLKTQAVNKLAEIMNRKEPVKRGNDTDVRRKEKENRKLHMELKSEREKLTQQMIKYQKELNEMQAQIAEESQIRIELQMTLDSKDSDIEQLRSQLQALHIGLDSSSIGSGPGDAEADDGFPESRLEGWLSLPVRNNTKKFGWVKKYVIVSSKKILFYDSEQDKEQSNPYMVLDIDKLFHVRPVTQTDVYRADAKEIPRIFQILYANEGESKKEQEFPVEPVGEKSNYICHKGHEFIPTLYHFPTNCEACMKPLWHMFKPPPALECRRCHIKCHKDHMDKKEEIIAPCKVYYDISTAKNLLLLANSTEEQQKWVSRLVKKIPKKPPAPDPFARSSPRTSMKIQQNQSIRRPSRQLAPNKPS

| IC50 (ROCK2) [nM] | Compound | other results |
| --- | --- | --- |
| 13 | NC(=O)c1cccnc1Oc1ccc(CC(=O)Nc2nc3c(F)cccc3n2CC(F)F)cc1F [Example 169, 2-(4-(2-((1-(2,2-difluoroethyl)-4-fluoro-1H-benzo[d]-imidazol-2-yl)-amino)-2-oxo-ethyl)-2-fluoro-phenoxy)nicotin-amide] | – |
| 31 | NC(=O)c1cccnc1Oc1ccc(CC(=O)Nc2nc3ccc(OCc4ccccc4)cc3n2CC2CC2)cc1F [Example 170, 2-(4-(2-((6-(benzyloxy)-1-(cyclo-propylmethyl)-1H-benzo[d]-imidazol-2-yl)-amino)-2-oxo-ethyl)-2-fluoro-phenoxy)nicotin-amide] | – |
| 3 | NC(=O)c1cccnc1Oc1ccc(CC(=O)Nc2nc3c(F)cccc3n2CC2CC2)cc1Cl [Example 171, 2-(2-chloro-4-(2-((1-(cyclo-propylmethyl)-4-fluoro-1H-benzo[d]-imidazol-2-yl)-amino)-2-oxo-ethyl)phenoxy)-nicotinamide] | – |
| 7 | NC(=O)c1cccnc1Oc1ccc(CC(=O)Nc2nc3ccc(F)cc3n2CC2CC2)cc1Cl [Example 172, 2-(2-chloro-4-(2-((1-(cyclopropyl-methyl)-6-fluoro-1H-benzo[d]-imidazol-2-yl)-amino)-2-oxo-ethyl)phenoxy)-nicotinamide] | – |
| 8 | NC(=O)c1cccnc1Oc1ccc(CC(=O)Nc2nc3c(F)cccc3n2CC(F)F)cc1Cl [Example 173, 2-(2-chloro-4-(2-((1-(2,2-difluoro-ethyl)-4-fluoro-1H-benzo[d]-imidazol-2-yl)-amino)-2-oxo-ethyl)phenoxy)-nicotinamide] | – |
| 10 | NC(=O)c1cccnc1Oc1ccc(CC(=O)Nc2nc3cc(F)ccc3n2CC2CC2)cc1Cl [Example 174, 2-(2-chloro-4-(2-((1-(cyclo-propylmethyl)-5-fluoro-1H-benzo[d]-imidazol-2-yl)-amino)-2-oxo-ethyl)phenoxy)-nicotinamide] | – |
| 44 | NC(=O)c1cccnc1Oc1ccc(CC(=O)Nc2nc3ccc(C(F)(F)F)cc3n2CC2CC2)cc1F [Example 175, 2-(4-(2-((1-(cyclopropyl-methyl)-6-(trifluoro-methyl)-1H-benzo[d]-imidazol-2-yl)amino)-2-oxoethyl)-2-fluorophenoxy)-nicotinamide] | – |
| 16 | NC(=O)c1cccnc1Oc1ccc(CC(=O)Nc2nc3ccc(C(F)(F)F)cc3n2CC2CC2)cc1Cl [Example 176, 2-(2-chloro-4-(2-((1-(cyclo-propylmethyl)-6-(trifluoro-methyl)-1H-benzo[d]-imidazol-2-yl)-amino)-2-oxo-ethyl)phenoxy)-nicotinamide] | – |
| 7 | NC(=O)c1cccnc1Oc1ccc(CC(=O)Nc2nc3cc(C(F)(F)F)ccc3n2CC2CC2)cc1Cl [Example 177, 2-(2-chloro-4-(2-((1-(cyclo-propylmethyl)-5-(trifluoro-methyl)-1H-benzo[d]-imidazol-2-yl)-amino)-2-oxo-ethyl)phenoxy)-nicotinamide] | – |
| 14 | CC(C)(O)COc1ccc2nc(NC(=O)Cc3ccc(Oc4ncccc4C(N)=O)c(F)c3)n(CC3CC3)c2c1 [Example 178, 2-(4-(2-((1-(cyclopropylmethyl)-6-(2-hydroxy-2-methylpropoxy)-1H-benzo[d]imidazol-2-yl)amino)-2-oxoethyl)-2-fluorophenoxy)nicotinamide] | – |
| – | C[C@@H](N)[C@H]1CC[C@H](C(=O)Nc2ccncc2)CC1 [Example Y-27632, Y-27632] | blood pressure ([1]; control rats): only a minor effect on blood pressure; blood pressure ([1]; three rat models of hypertension): significantly decrease blood pressure; ventricular hypertrophy, fibrosis and function (Dahl salt-sensitive rats): improve ventricular hypertrophy, fibrosis and function; neointimal formation [2]: inhibited neointimal formation |
| – | O=S(=O)(c1cccc2cnccc12)N1CCCNCC1 [fasudil] | coronary constrictive remodeling [3]: promote a regression of coronary constrictive remodeling; coronary stenosis [3]: progressively reduce coronary stenosis; infarct size and neurologic deficit (rat stroke model): reduce both the infarct size and neurologic deficit |
